These results are taken from patent US6596477B1, “Treatment and prevention of immunodeficiency virus infection by administration of non-pyrogenic derivatives of lipid A” (University of Maryland Biotechnology Institute, priority 1998, dated 2003).

The test system of data set [1] is mice. The following applies: cited from earlier work.
The subject of data set [2] is HIV-1. The following applies: alone; cited from earlier work.
The subject of data set [3] is human PBMCs. The data set can be described thus: β chemokine (MIP-1α, MIP-1β, RANTES) secretion from human PBMCs, dose and time course, capture ELISA. It is filed as cell-based. For orientation: In an ELISA, binding on a coated surface is turned into a signal by an enzyme label.
Data set [4] has as its system mice. The following applies: cited from earlier work. This is another data set of the same source.
Data set [5] concerns human PBMCs. The data set can be described thus: human PBMC activation assay: proinflammatory cytokines (TNFα, IL-1β, IL-6) in supernatants by capture ELISA. It is filed as cell-based. The conditions noted are these: 1 μg/ml; 8 hr.
Procedure: 50 ml of whole blood is mixed with an equal volume of RPMI (Life Technologies) and PBMCs are isolated by density gradient using lymphocyte separation medium according to the manufacturer's directions (Organon). The PBMCs are washed twice with RPMI then resuspended in 6 ml of ice cold sterile water and placed on ice for 30 sec to lyse the erythrocytes. The osmolarity is adjusted by adding 2 ml of ice cold 3.5% (w/v) NaCl; the PBMCs are harvested by centrifugation, washed with RPMI and resuspended in complete medium (CM; RPMI containing pyruvate, glutamine, PenStrep, and 10% endotoxin-free human AB serum (Life Technologies) at a density of 6×10^6 PBMCs/ml. CM containing the preparations to be assayed are placed into duplicate wells of a 96-well flat bottom culture late (Costar) at double the target final concentration. An equal volume of CM containing the PBMCs then is added to these wells and the culture plates are incubated at 37° C. in 5% CO2 for 8 hr. The supernatants are then removed and stored at 70° C. Quantitation of TNFα, IL-1β, IL-6, MIP-1α, MIP-1β and RANTES in these culture supernatants is achieved by capture ELISA (R&D Systems).
For data set [6], the system named is human PBMCs. In words: LPS antagonist test: TNFα from human PBMCs stimulated with W3110 LPS mixed with antagonist. It is filed as cell-based. The conditions noted are these: 1 μg/ml mixed with W3110 LPS 10 ng/ml; 8 hr. The method, then: Quantitation of TNFα, IL-1β, IL-6, MIP-1α and MIP-1β in these culture supernatants was achieved by capture ELISA (R&D Systems).
W3110 LPS (also cultured at 37° C.) from 1 ng/ml to 100 ng/ml alone and W3110 LPS (10 ng/ml) mixed with synthetic lipid IVA (1 μg/ml) were used as controls.

In the next data set the test system is HIV-1BAL. The data set can be described thus: HIV-1BAL replication (p24 ELISA) in human PBMC-derived monocytes pretreated 24 hours. It is filed as cell-based. The following applies: 1000, 100 and 10 ng/ml for 24 hours; 19 days after infection; FIG. 5. Here is the method:
To investigate the utility of the aforementioned findings, we investigated whether commercially available synthetic lipid IVA (ICN Inc.) suppressed the replication of HIV-1BAL in human PBMC-derived monocytes. Therefore, PBMCs were obtained as outlined in Section 6, see above, and placed into 12 well culture flat-bottom plate and incubated in CM (see example 1) for 12 days at 37° C. in 5% Co2. Non-adherent cells were removed and the cells were given fresh media every 2 days. After 6 days, the adherent PBMCs were treated with synthetic lipid IVA at 1000 ng/ml, 100 ng/ml and 10 ng/ml for 24 hours. The treated cells were subsequently infected with 0.200 ng of HIV-1BAL (Cocchi et al, supra) for 2 hours, washed twice and incubated for a further 19 days. Culture supernatants were then collected and the level of p24 in these supernatants was measured by ELISA (R&D Systems).
PBMC-derived monocytes were obtained as outlined in Section 8, see above. […] The treated cells were subsequently infected with 0.200 ng of HIV-1BAL (Cocchi et al., supra) for 2 hours, washed twice and incubated for a further 19 days. Culture supernatants were then collected and the level of p24 in these supernatants was measured by ELISA (R&D Systems).

Data set [7] deals with HIV-1. The following applies: AIDS patients; cited from earlier work.

With “2,3-diacyl-glucosamine-1-phosphate [lipid X]”, the “pyrogenicity / toxicity in mice” value with mice [1] is “non-pyrogenic in mice”.
As for `Cc1cn([C@H]2C[C@H](N=[N+]=[N-])[C@@H](CO)O2)c(=O)[nH]c1=O` [AZT, 3′-azido-2′,3′-dideoxythymidine], the “effect on viral load” value in the data set with HIV-1 [2] is “about 1 log reduction”.
Consider `CCCCCC/C=C/CCCCCC(=O)O[C@H](CCCCCCCCCCC)CC(=O)NC1C(OCC2OC(OP(=O)(O)O)C(NC(=O)CC(=O)CCCCCCCCCCC)C(OC(=O)C[C@H](O)CCCCCCC)C2O)OC(CO)C(OP(=O)(O)O)C1OC(=O)C[C@H](O)CCCCCCC` (stereo partly drawn) [RsDPLA, R. sphaeroides diphosphoryl lipid A], for which the “level of RANTES after stimulation” value in the data set with human PBMCs [3] (FIG. 3) was “not significantly elevated”. In addition, the “time of peak production of MIP-1α and MIP-1β after stimulation” value in the data set with human PBMCs [3] (supernatants at 8, 16, 24, 48 hr, FIG. 3) is 24 h. Moreover, in the data set with human PBMCs [3] (various doses, FIG. 2), the MIP-1α secretion result is “stimulated the secretion of MIP-1α and MIP-1β in a dose-dependent manner”; the MIP-1β secretion entry was “stimulated the secretion of MIP-1α and MIP-1β in a dose-dependent manner”.
As to R. sphaeroides lipid A [RSLA], the LPS induced lethality entry in the data set on mice [4] is on record as “prevents LPS induced lethality in mice”.
Turning to `CCCCCCCCCCC[C@@H](O)CC(=O)N[C@H]1[C@H](OC[C@H]2O[C@H](OP(=O)(O)O)[C@H](NC(=O)C[C@H](O)CCCCCCCCCCC)[C@@H](OC(=O)C[C@H](O)CCCCCCCCCCC)[C@@H]2O)O[C@H](CO)[C@@H](OP(=O)(O)O)[C@@H]1OC(=O)C[C@H](O)CCCCCCCCCCC` [Lipid IVA], in the data set with human PBMCs [5], the “IL-1β in human PBMC culture supernatants after stimulation with LPS” value stood at 13 ± 1 pg/mL and the “IL-6 in human PBMC culture supernatants after stimulation with LPS” value stood at 7581 ± 20 pg/mL. This molecule registered a TNFα in the data set with human PBMCs [6] of under 30 pg/mL. For the same molecule, the “induction of β chemokines” value with human PBMCs [3] is on record as “without Inducing Measurable Levels of β Chemokines”. In the data set with HIV-1BAL, the “replication of HIV-1BAL (p24) in PBMC-derived monocytes” value was “suppresses the replication of HIV-1^BAL in a dose-dependent manner”. For the same molecule, the “pyrogenicity / toxicity in mice” value in the data set with mice [1] was “displays similar toxicity of that of lipid A in mice”.
For `CC(C)c1nc(CN(C)C(=O)N[C@H](C(=O)N[C@@H](Cc2ccccc2)C[C@H](O)[C@H](Cc2ccccc2)NC(=O)OCc2cncs2)C(C)C)cs1` [ABT-538], in the data set with HIV-1 [7], the CD4 lymphocyte counts entry was “CD4 lymphocyte counts to rise substantially” and the “plasma HIV-1 levels” value is listed as “causes plasma HIV-1 levels to decrease exponentially”.
